Results on one molecule are retold here after patent US20160030409A1, “METHOD FOR RELIEVING CHRONIC PAIN” (priority 2014, published 2016).

The series concerns chronic non-malignant pain due to fibromyalgia and osteoarthritis. As to the kind of experiment: Trial experiment: Naropin injected into tender points of a patient with chronic non-malignant pain. It is filed as in vivo. Here is the method: The patient was treated with the anesthetic Naropin® (generically known as ropivacaine), by injecting 0.5 cc of the anesthetic, by needle, into most tender points above and below the knees. Naropin was administered at a concentration of 5 mg/ml.
Subsequently, after sufficient time had elapsed for the previously injected Naropin to leave the patient's body, 0.5 cc of Naropin was once again administered, at a concentration of 5 mg/ml, using the Medical International Technology, Inc. (MIT) Med-Jet® H™ needleless, pressure-based injector. The injector was set at a pressure of 150 psig. For knee pain, most tender points, approximately five to eight, above and below the knees were injected. For hip pain, most tender points, approximately five, above the trochanteric bursa were injected. For back pain, most tender points, approximately ten on each side of the back, around the sacroiliac joints were injected. A single injection was administered for each tender point selected for injection. The administration of the local anesthetic by needleless injection left painful welts at each injection site, which took approximately two to three weeks to disappear.

For the molecule `CCCN1CCCC[C@H]1C(=O)Nc1c(C)cccc1C` [Naropin, ropivacaine], the “tenderness of tender points after the welts had disappeared” value (0.5 cc at 5 mg/ml by Med-Jet H needleless pressure-based injector at 150 psig) is recorded as “no longer tender”. Also, the “pain after the welts had disappeared” value (0.5 cc at 5 mg/ml by Med-Jet H needleless pressure-based injector at 150 psig, tender points of knees, hip, back) is on record as “pain was diminished”. In addition, the pain relief entry (0.5 cc at 5 mg/ml injected by needle into most tender points above and below the knees, middle-aged patient) was “No pain relief”. Under “needleless injection, 150 psig”, the “time for welts to disappear” value is given as “two to three”. Further, the injection site reaction result (needleless injection, 150 psig, each injection site) is “painful welts”.
